{"source": "paper PMC11372076", "about": "“A dual inhibitor of PIP5K1C and PIKfyve prevents SARS-CoV-2 entry into cells” (Experimental & Molecular Medicine, 2024)", "key": {"[1]": {"tested_on": "HEK293T cells stably expressing mCherry-GFP-LC3", "experiment": "mCherry-GFP-LC3 tandem fluorescent protein quenching assay", "type": "cell-based", "details": "0.5 μM, within 6 h", "description": "HEK293T cells at a density of 1.6 × 10^4 cells per well in 96-well plates (Nunc) were stained with Hoechst (Cayman Chemical Company, 33342) for 10 min. The cells were washed with PBS two times and incubated with prewarmed media supplemented with 10% FBS. Cells were treated with UNI418 in prewarmed media. Images were acquired in a time-dependent manner and quantified with an ImageXpress high-content screening system (Molecular Devices, San Jose, CA, USA).\nFig. 3 UNI418 negatively affects autophagosome-lysosome fusion and endosome acidification. a Live-cell imaging of HEK293T cells stably expressing mCherry-GFP-LC3 treated with 0.5 μM UNI418 at the indicated time points; the images within the white rectangular boxes are magnified on the right side. Scale bar, 30 µm. The number (b) and area (c) of GFP-positive dots per cell were quantified by ImageXpress. d Immunofluorescence images illustrating the inhibition of endolysosomal acidification by UNI418. Vero cells were treated with the mock control or 1 µM UNC3230, apilimod or UNI418 for 1 h at 37 °C. […] The cells were analyzed by confocal microscopy using two emission wavelengths at 493–560 (green) and 590–720 nm (red) after excitation at 488 nm. […] The green-to-red fluorescence intensity ratio (e) and the area of fluorescent spots (f) were quantified. b, c, e, f The data are presented as the means ± SEMs, with a minimum of 200 spots. […]"}, "PIKFYVE": {"target": "PIKFYVE (Homo sapiens, UniProt Q9Y2I7)", "sequence (Q9Y2I7 whole entry)": "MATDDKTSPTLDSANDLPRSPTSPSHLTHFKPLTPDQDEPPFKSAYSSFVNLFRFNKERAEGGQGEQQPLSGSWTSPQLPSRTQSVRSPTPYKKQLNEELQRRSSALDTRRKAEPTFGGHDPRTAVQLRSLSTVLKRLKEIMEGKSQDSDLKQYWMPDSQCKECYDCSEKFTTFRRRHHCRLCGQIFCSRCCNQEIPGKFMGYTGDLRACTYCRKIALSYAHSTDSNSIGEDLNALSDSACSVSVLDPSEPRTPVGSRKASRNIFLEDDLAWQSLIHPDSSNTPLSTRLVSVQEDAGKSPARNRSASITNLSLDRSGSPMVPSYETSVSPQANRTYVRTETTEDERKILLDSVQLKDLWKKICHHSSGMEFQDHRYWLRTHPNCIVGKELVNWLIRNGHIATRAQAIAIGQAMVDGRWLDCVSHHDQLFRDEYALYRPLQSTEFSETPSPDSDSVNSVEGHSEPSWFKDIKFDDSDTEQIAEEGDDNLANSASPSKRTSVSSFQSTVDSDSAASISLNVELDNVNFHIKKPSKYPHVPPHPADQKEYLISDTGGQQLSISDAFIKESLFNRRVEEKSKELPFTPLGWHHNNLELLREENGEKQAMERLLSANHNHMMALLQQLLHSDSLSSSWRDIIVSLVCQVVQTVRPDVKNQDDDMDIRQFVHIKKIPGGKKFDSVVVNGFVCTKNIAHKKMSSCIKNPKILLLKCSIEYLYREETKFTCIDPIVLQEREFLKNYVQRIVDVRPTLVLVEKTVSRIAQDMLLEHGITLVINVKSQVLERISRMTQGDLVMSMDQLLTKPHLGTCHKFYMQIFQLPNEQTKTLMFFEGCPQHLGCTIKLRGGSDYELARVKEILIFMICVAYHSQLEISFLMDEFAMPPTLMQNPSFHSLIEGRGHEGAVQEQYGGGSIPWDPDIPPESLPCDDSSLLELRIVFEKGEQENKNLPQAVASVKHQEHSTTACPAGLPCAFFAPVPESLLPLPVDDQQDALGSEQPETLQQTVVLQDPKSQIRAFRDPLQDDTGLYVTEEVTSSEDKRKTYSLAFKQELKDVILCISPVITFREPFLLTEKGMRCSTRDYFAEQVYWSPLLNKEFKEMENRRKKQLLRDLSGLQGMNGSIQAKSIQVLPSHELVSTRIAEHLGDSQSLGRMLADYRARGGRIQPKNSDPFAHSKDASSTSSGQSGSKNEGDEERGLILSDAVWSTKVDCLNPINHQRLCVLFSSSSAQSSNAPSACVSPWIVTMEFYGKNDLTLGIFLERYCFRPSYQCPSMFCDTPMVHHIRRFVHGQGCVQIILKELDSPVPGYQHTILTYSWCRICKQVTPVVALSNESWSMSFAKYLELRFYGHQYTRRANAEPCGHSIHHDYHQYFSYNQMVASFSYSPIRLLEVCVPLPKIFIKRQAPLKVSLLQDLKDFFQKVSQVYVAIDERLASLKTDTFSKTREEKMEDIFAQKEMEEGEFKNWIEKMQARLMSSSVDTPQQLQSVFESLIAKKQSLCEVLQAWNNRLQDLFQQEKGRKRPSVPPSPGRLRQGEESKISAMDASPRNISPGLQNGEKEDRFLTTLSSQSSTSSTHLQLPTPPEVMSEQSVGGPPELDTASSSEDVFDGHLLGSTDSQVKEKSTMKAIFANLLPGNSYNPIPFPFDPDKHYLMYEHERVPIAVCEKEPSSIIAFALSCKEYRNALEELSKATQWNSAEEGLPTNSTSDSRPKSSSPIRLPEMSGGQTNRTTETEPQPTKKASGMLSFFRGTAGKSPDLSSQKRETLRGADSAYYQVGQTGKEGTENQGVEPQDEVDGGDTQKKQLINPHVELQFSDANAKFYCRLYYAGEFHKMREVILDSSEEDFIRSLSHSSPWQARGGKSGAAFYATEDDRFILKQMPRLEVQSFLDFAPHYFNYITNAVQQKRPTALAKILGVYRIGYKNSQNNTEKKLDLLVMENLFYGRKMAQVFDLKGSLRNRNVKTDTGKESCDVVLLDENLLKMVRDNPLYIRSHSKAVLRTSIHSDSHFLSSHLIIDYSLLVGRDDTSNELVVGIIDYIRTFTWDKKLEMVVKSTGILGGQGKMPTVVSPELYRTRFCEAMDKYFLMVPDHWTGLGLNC", "experiment": "Eurofins kinase assay service (Kd)", "type": "binding", "description": "Supplementary Fig. 2 UNI418 inhibits PIP5K1B/C and PIKfyve. a Inhibition graph of PIP5K1 kinases at the 10 point titration with UNI418. IC 50 value of PIP5K1 kinases was analyzed by Thermo Fisher Scientific’s SelectScreen kinase profiling service. b Kd (nM) values of PIP5K1C and PIKfyve inhibition were determined using the Eurofins kinase assay service.\n(1 picture or pasted object on this page, not shown here)"}, "VSV-G-pseudotyped virus": {"tested_on": "VSV-G-pseudotyped virus", "type": "cell-based"}, "GFP-PIKfyve": {"tested_on": "GFP-PIKfyve", "experiment": "Cellular thermal shift assay (CETSA)", "type": "cell-based", "details": "versus DMSO control, Western blot", "description": "(§1) The chemically treated cells were heated to 56 °C for 3 min to denature and precipitate nontargeted proteins. The heated cells were immediately snap-frozen in liquid nitrogen overnight. After the cells were frozen and thawed twice, the tubes were briefly vortexed. The resulting cell lysates were subjected to SDS‒PAGE.\n(§2) Fig. 1 UNI418 specifically targets PIP5K1 and PIKfyve. a Chemical structure of UNI418. The 4-quinazolinamine core is highlighted in green. b Table of the kinase profiling analysis. Inhibition of several kinases was determined at a 1 μM concentration of UNI418 and analyzed by the SelectScreen Kinase Profiling Service (Thermo Fisher Scientific). c Cellular thermal shift assay. Ectopically expressed GFP-PIP5K1C and GFP-PIKfyve were heated to the indicated temperatures with/without UNI418, and the presence of protein in the soluble fraction was analyzed by Western blot analysis. […]"}, "GFP-PIP5K1C": {"tested_on": "GFP-PIP5K1C", "experiment": "Cellular thermal shift assay (CETSA)", "type": "cell-based", "details": "versus DMSO control, Western blot", "description": "as §1, §2"}, "RPE1 cells": {"tested_on": "RPE1 cells", "experiment": "Vacuolization analysis", "type": "cell-based", "description": "CUGAUCAAGAU G A -3 and PIKfyve#2 siRNA 5'-\n[…] -3'. siRNA oligonucleotides were purchased from Genolution, Sigma- Aldrich and Integrated DNA Technologies.\nThese siRNAs were transfected into the cell using lipofectamine RNAiMAX (Invitrogen, 13778150) following manufacturer ’s protocol.\nRPE1 cells were treated with UNI418 at indicated concentration for over-night.\nAfter that, the image was taken by EVOS M5000 (Thermo Fisher Scientific).\nRPE1 cells were treated with UNI418 at the different concentration during the time. Live cell images were taken by Lionheart LX Automated Microscope and analyzed in Gen5 (Agilent).\nRPE1 cells were treated with indicated doses of UNI418 overnight. To analyze PIP2 level by flow cytometry, trypsinized cells were fixed with 4% paraformaldehyde for 10 min at room temperature. The fixed cells were permeabilized with 0.2% PBS-T (Triton X-100) for 5min and blocked with 5% Bovine Serum Albumin (BSA), and stained with the primary antibody for 4h at 4°C. Cells were washed three times with 1% BSA-PBS and incubated with the fluorescence- conjugated secondary antibody Alexa Fluor® 488 AffiniPure Goat Anti-Mouse IgG (H+L) (Jackson ImmunoResearch,111- 545- 003) for 1h at room temperature analyzed by BD Accuri C6 Plus flow cytometer (BD Biosciences). […]"}}, "note": "pKd: −log10 of the molar value.", "data": [{"smiles": "c1ccc(-c2cc(Nc3nc(-c4ccncc4)nc4ccccc34)n[nH]2)cc1", "note": "[UNI418, N -(5-phenyl-1 H -pyrazol-3-yl)-2-(4-pyridinyl)-4-quinazolinamine]", "values": [{"measurement": "number of nonacidic autophagosomes", "setting": "[1]", "value": "considerably increased"}, {"measurement": "pKd", "setting": "PIKFYVE", "value": 9.11}, {"measurement": "pseudotyped virus entry", "setting": "VSV-G-pseudotyped virus", "value": "unaffected"}, {"measurement": "thermal stabilization of target protein in soluble fraction", "setting": "GFP-PIKfyve", "value": "more stable at higher temperatures"}, {"measurement": "thermal stabilization of target protein in soluble fraction", "setting": "GFP-PIP5K1C", "value": "more stable at higher temperatures"}, {"measurement": "vacuolization", "setting": "RPE1 cells", "value": "induced vacuolization"}]}]}
